Measured values reported in patent US8987474B2 (University of South Florida, priority 2006, dated 2015).

Biological target: Shp2 (Homo sapiens (Human), UniProt Q06124)
Experiment: PTP activity assay (DiFMUP substrate) with GST-Shp2
Assay type: biochemical
Details: for IC50: Table II, Shp2
Source text: All constructs were verified by DNA sequencing.
Recombinant DEP1 was from Abcam.

Chain of Shp2 (Q06124 205-593): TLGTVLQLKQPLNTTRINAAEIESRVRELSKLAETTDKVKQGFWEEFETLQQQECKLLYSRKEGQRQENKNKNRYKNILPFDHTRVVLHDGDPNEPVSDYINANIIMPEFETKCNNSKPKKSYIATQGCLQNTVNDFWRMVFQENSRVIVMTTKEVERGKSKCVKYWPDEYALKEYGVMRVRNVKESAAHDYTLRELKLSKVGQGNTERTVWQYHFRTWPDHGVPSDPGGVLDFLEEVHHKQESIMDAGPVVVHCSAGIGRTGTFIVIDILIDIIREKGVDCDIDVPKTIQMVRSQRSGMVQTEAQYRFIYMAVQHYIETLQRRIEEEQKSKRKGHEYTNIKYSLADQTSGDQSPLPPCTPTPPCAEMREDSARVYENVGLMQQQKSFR

O=C(O)c1ccc(NC(=O)c2ccc3cc(C(=O)O)ccc3c2)cc1 [RPM194]
% PTP activity (at 20 μM): 69 ± 7.5% (3) at 20 uM

O=C1Nc2ccc(S(=O)(=O)O)cc2/C1=N/Nc1ccc(Cl)cc1Cl [RPM224, 2-Oxo-3-[(2,4-dichlorophenylhydrazono)]-2,3-dihydro-1H-indole-5-sulfonic acid]
IC50: 33 to 100 µM | % PTP activity (at 20 μM): 81 ± 10% (3) at 20 μM

O=C1Nc2ccc(S(=O)(=O)O)cc2/C1=N/Nc1ccccc1C(=O)O [RPM211, 2-[N′-(2-Oxo-5-sulfo-1,2-dihydro-indol-3-ylidene)hydrazino]benzoic acid]
IC50: 33 to 100 µM | % PTP activity (at 20 μM): 67 ± 8% at 20 μM

O=C1Nc2ccc(S(=O)(=O)O)cc2/C1=N/Nc1nc2ccccc2s1 [HL1-058-3]
IC50: 33 to 100 µM | % PTP activity (concentration not given): 46 ± 4% (3)

O=C1Nc2ccccc2/C1=N/Nc1ccccc1[N+](=O)[O-] [HL1-047]
IC50: 33 to 100 µM | % PTP activity (concentration not given): 93 ± 9% (3)

CC(C)NS(=O)(=O)c1ccc2c(c1)/C(=C/Nc1ccc(C(=O)O)cc1)C(=O)N2 [RPM305, 4-[(5-Isopropylsulfamoyl-2-oxo-1,2-dihydro-indol-3-ylidenemethyl)amino]benzoic acid]
IC50: 33 to 100 µM | % PTP activity (at 20 μM): 56.77% (1) at 20 μM

CN1C(=O)/C(=N\Nc2ccccc2[N+](=O)[O-])c2cc(S(=O)(=O)N(C)C)ccc21 [RPM154]
% PTP activity (concentration not given): 73 ± 3% (6)

COCCNS(=O)(=O)c1ccc2c(c1)/C(=N/Nc1ccccc1[N+](=O)[O-])C(=O)N2 [RPM171, 3-[(2-Nitrophenyl)hydrazono]-2-oxo-2,3-dihydro-1H-indole-5-sulfonic acid (2-methoxyethyl)amide]
% PTP activity (concentration not given): 44 ± 8% (12)

CNC(=O)c1ccccc1N/N=C1\C(=O)Nc2ccc(S(=O)(=O)NC(C)C)cc21 [RPM295, 2-[N′-(5-Isopropylsulfamoyl-2-oxo-1,2-dihydro-indol-3-ylidene)hydrazino]-N-methylbenzamide]
% PTP activity (at 20 μM): 43 ± 2% (2) At 20 μM

CC(C)NC(=O)c1ccc2c(c1)/C(=N/Nc1cccc(C(=O)O)c1)C(=O)N2 [HL2-070-7]
% PTP activity (at 20 μM): 53.62% (1) at 20 μM

O=C1Nc2ccc(S(=O)(=O)NCc3ccc(Cl)cc3)cc2/C1=C/Nc1ccccc1[N+](=O)[O-] [RPM310]
% PTP activity (at 20 μM): 66.20% (1) At 20 μM

CCC(C)NS(=O)(=O)c1ccc2c(c1)/C(=N/Nc1ccccc1Cl)C(=O)N2 (stereo not drawn) [HL2-016-13]
% PTP activity (concentration not given): 35 ± 4% (6)

CC(C)NS(=O)(=O)c1ccc2c(c1)/C(=N/Nc1ccccc1)C(=O)N2 [RPM275, 3-(Phenylhydrazono)-2-oxo-2,3-dihydro-1H-indole-5-sulfonic acid isopropylamide]
% PTP activity (at 20 μM): 58.53% (1) at 20 μM

CCCNS(=O)(=O)c1ccc2c(c1)/C(=N/Nc1ccccc1[N+](=O)[O-])C(=O)N2 [RPM170, 3-[(2-Nitrophenyl)-hydrazono]-2-oxo-2,3-dihydro-1H-indole-5-sulfonic acid propylamide]
% PTP activity (concentration not given): 43 ± 8% (12)

NS(=O)(=O)c1ccc(NC(=O)c2ccc3cc(C(=O)O)ccc3c2)cc1 [RPM195]
% PTP activity (at 20 μM): 54 ± 6% (3) at 20 uM

CCCNS(=O)(=O)c1ccc2c(c1)/C(=N/Nc1ccccc1Cl)C(=O)N2 [HL2-016-9]
% PTP activity (concentration not given): 48 ± 1% (6)

COC(=O)c1ccc2[nH]cc(C(=O)c3ccccc3)c2c1 [RPM341, 3-Benzoyl-1H-indole-5-carboxylic acid methyl ester]
% PTP activity (at 20 μM): 42 ± 10% (2) at 20 μM

CCNC(=O)c1cccc(N/N=C2\C(=O)Nc3ccc(S(=O)(=O)NC(C)C)cc32)c1 [RPM331, N-Ethyl-3-[N′-(5-isopropylsulfamoyl-2-oxo-1,2-dihydro-indol-3-ylidene)hydrazino]benzamide]
% PTP activity (at 20 μM): 45 + 2% 92) at 20 μM

CC(C)NS(=O)(=O)c1ccc2c(c1)/C(=N/Nc1ccccc1C(=O)N(C)C)C(=O)N2 [RPM294, 2-[N′-(5-Isopropylsulfamoyl-2-oxo-1,2-dihydro-indol-3-ylidene)hydrazino]-N,N-dimethylbenzamide]
% PTP activity (at 20 μM): 48 ± 0% (2) At 20 μM

O=C1Nc2ccc(S(=O)(=O)NCc3ccccn3)cc2/C1=N/Nc1ccccc1[N+](=O)[O-] [RPM135, 3-[(2-Nitrophenyl)hydrazono]-2-oxo-2,3-dihydro-1H-indole-5-sulfonic acid (pyridin-2-ylmethyl)amide]
IC50: 33 to 100 µM | % PTP activity (concentration not given): 47 ± 10% (12)

COC(=O)c1ccc2cc(C(=O)Nc3ccc(S(N)(=O)=O)cc3)ccc2c1 [RPM187]
% PTP activity (at 20 μM): 66 ± 4% (3) at 20 uM

COCCNC(=O)c1cccc(N/N=C2\C(=O)Nc3ccc(S(=O)(=O)NC(C)C)cc32)c1 [RPM327, 3-[N′-(5-Isopropylsulfamoyl-2-oxo-1,2-dihydro-indol-3-ylidene)hydrazino]-N-(2-methoxyethyl)benzamide]
% PTP activity (at 20 μM): 44 + 7% (2) at 20 μM

O=C(O)c1cc(NC(=O)c2ccc3cc(C(=O)O)ccc3c2)cc(C(=O)O)c1 [HL2-026]
% PTP activity (concentration not given): 87 ± 14% (6)

O=C1Cc2cc(S(=O)(=O)NCc3ccc(Cl)cc3)ccc2N1 [RPM307, 2-Oxo-2,3-dihydro-1H-indole-5-sulfonic acid 4-chloro-benzylamide]
% PTP activity (at 20 μM): 39 ± 10% (20 at 20 μM

O=C1Nc2ccccc2/C1=N/Nc1ccccc1Cl [HL1-050-1]
IC50: 33 to 100 µM | % PTP activity (concentration not given): 99 ± 2% (3)

O=C1Nc2ccc(S(=O)(=O)NCc3ccc(Cl)cc3)cc2/C1=N/Nc1ccccc1Cl [HL2-016-4]
% PTP activity (concentration not given): 32 ± 17% (12)

CN(C)CCNS(=O)(=O)c1ccc2c(c1)/C(=N/Nc1ccccc1Cl)C(=O)N2 [HL2-016-19]
% PTP activity (concentration not given): 89 ± 3% (6)

O=C1Nc2ccccc2/C1=N/Nc1cccc([N+](=O)[O-])c1 [HL1-050-2]
% PTP activity (concentration not given): 32 ± 3% (3)

COCCNS(=O)(=O)c1ccc2c(c1)/C(=N/Nc1ccccc1Cl)C(=O)N2 [HL2-016-12]
% PTP activity (concentration not given): 32 ± 3% (6)

O=C(O)c1ccc2cc(C(=O)Nc3cccc(S(=O)(=O)O)c3)ccc2c1 [HL2-022-2]
% PTP activity (concentration not given): 52 ± 17% (5)

O=C1Nc2ccc(S(=O)(=O)O)cc2/C1=N/Nc1ccccc1C(F)(F)F [RPM221, 2-Oxo-3-[(2-trifluoromethylphenylhydrazono)]-2,3-dihydro-1H-indole-5-sulfonic acid]
IC50: 33 to 100 µM | % PTP activity (at 20 μM): 63 ± 4% (3) at 20 μM

CCOC(=O)c1cccc(NC(=O)c2ccc3cc(C(=O)OC)ccc3c2)c1 [HL2-022-1-Intermediate]
% PTP activity (concentration not given): 68 ± 20% (7)

CCc1ccccc1N/N=C1\C(=O)Nc2ccc(C(=O)O)cc21 [RPM320, 3-[(2-Ethylphenyl)hydrazono]-2-oxo-2,3-dihydro-1H-indole-5-carboxylic acid]
% PTP activity (at 20 μM): 44 ± 5% (2) At 20 μM

CC(C)NS(=O)(=O)c1ccc2c(c1)/C(=N/Nc1ccccc1C(=O)NCc1ccccc1)C(=O)N2 [RPM287, N-Benzyl-2-[N′-(5-isopropylsulfamoyl-2-oxo-1,2-dihydro-indol-3-ylidene)hydrazino]benzamide]
% PTP activity (at 20 μM): 48 ± 10% (2) At 20 μM

O=C1Nc2ccc(S(=O)(=O)NCC3CCCO3)cc2/C1=N/Nc1ccccc1[N+](=O)[O-] (stereo not drawn) [RPM172, 3-[(2-Nitrophenyl)hydrazono]-2-oxo-2,3-dihydro-1H-indole-5-sulfonic acid (tetrahydrofuran-2-ylmethyl)amide]
% PTP activity (concentration not given): 35 ± 5% (12)

O=C1Nc2ccc(S(=O)(=O)O)cc2/C1=N/Nc1ccccc1Cl [HL1-058-1]
IC50: 33 to 100 µM | % PTP activity (concentration not given): 69 ± 9% (2)

CN(C)CCCNS(=O)(=O)c1ccc2c(c1)/C(=N/Nc1ccccc1[N+](=O)[O-])C(=O)N2 [HL2-016-21]
% PTP activity (concentration not given): 77 ± 2% (6)

O=C1Nc2ccc(S(=O)(=O)O)cc2/C1=N/Nc1ccccc1 [RPM215, 2-Oxo-3-(phenylhydrazono)-2,3-dihydro-1H-indole-5-sulfonic acid]
% PTP activity (at 20 μM): 51 ± 3% (3) at 20 μM

O=C1Nc2ccc(S(=O)(=O)NCC3CCCO3)cc2/C1=N/Nc1ccccc1Cl (stereo not drawn) [HL2-016-14]
% PTP activity (concentration not given): 42 ± 5% (6)

CC(C)NS(=O)(=O)c1ccc2c(c1)/C(=N/Nc1cccc(C(=O)NCc3ccccc3)c1)C(=O)N2 [RPM328, N-Benzyl-3-[N′-(5-isopropylsulfamoyl-2-oxo-1,2-dihydro-indol-3-ylidene)hydrazino]benzamide]
% PTP activity (at 20 μM): 47 ± 3% (2) at 20 μM

NS(=O)(=O)c1ccc2c(c1)/C(=N/Nc1ccccc1Cl)C(=O)N2 [HL2-016.2]
% PTP activity (concentration not given): 40 ± 8% (12)

O=C1Nc2ccc(S(=O)(=O)N3CCOCC3)cc2/C1=N/Nc1ccccc1[N+](=O)[O-] [RPM177]
% PTP activity (concentration not given): 36 ± 8% (6)

COC(=O)c1cc(NC(=O)c2ccc3cc(C(=O)OC)ccc3c2)cc(C(=O)OC)c1 [HL2-026-Intermediate]
IC50: 33 to 100 µM | % PTP activity (concentration not given): 40 ± 4% (6)

CN(C)S(=O)(=O)c1ccc2c(c1)/C(=N/Nc1ccccc1Cl)C(=O)N2 [HL2-016-1]
% PTP activity (concentration not given): 36 ± 11% (12)

CN(C)S(=O)(=O)c1ccc2c(c1)/C(=N/Nc1ccccc1[N+](=O)[O-])C(=O)N2Cc1ccccc1 [RPM156]
% PTP activity (concentration not given): 34 ± 4% (12)

O=C1Nc2ccc(S(=O)(=O)NCN3CCOCC3)cc2/C1=N/Nc1ccccc1Cl [HL2-016-8]
% PTP activity (concentration not given): 41 ± 4% (6)

CCNC(=O)c1ccccc1N/N=C1\C(=O)Nc2ccc(S(=O)(=O)NC(C)C)cc21 [RPM296, N-Ethyl-2-[N′-(5-isopropylsulfamoyl-2-oxo-1,2-dihydro-indol-3-ylidene)hydrazino]benzamide]
% PTP activity (at 20 μM): 48 ± 2% (2) At 20 μM

CCOC(=O)c1cccc(N/C=C2\C(=O)Nc3ccc(S(=O)(=O)NC(C)C)cc32)c1 [RPM302, 3-[(5-Isopropylsulfamoyl-2-oxo-1,2-dihydro-indol-3-ylidenemethyl)amino]benzoic acid ethyl ester]
IC50: 33 to 100 µM | % PTP activity (at 20 μM): 51 ± 7% (2) at 20 μM

CC(C)NS(=O)(=O)c1ccc2c(c1)/C(=N/Nc1cccc(C(N)=O)c1)C(=O)N2 [RPM325, 3-[N′-(5-Isopropylsulfamoyl-2-oxo-1,2-dihydro-indol-3-ylidene)hydrazino]benzamide]
IC50: 33 to 100 µM | % PTP activity (at 20 μM): 40 + 4% (2) at 20 μM

CCOC(=O)c1ccc(N/C=C2\C(=O)Nc3ccc(S(=O)(=O)NC(C)C)cc32)cc1 [RPM288, 4-[(5-Isopropylsulfamoyl-2-oxo-1,2-dihydro-indol-3-ylidenemethyl)amino]benzoic acid ethyl ester]
% PTP activity (at 20 μM): 30 ± 2% (2) at 20 μM

COc1cccc(CNS(=O)(=O)c2ccc3c(c2)/C(=N/Nc2ccccc2Cl)C(=O)N3)c1 [HL2-016-5]
% PTP activity (concentration not given): 51 ± 4% (6)
